# Measurements from ChEMBL document CHEMBL4828719, “H2dpa derivatives containing pentadentate ligands: An acyclic adjuvant potentiates meropenem activity in vitro and in vivo against metallo-β-lactamase-producing Enterobacterales” (Eur J Med Chem, 2021).
# Activity calls are given as the source filed them. The rule behind the calls is not given here.
# Legend:
# [1] = Zinc chelation-dependent inhibition of NDM-1 (unknown origin) expressed in Escherichia coli DH5 alpha using meropenem as substrate preincubated with enzyme for 5 mins followed by substrate addition in the presence of zinc sulfate
# [2] = Zinc chelation-dependent inhibition of IMP-1 (unknown origin) expressed in Escherichia coli DH5 alpha using imipenem as substrate preincubated with enzyme for 5 mins followed by substrate addition in the presence of zinc sulfate
# [3] = Zinc chelation-dependent inhibition of VIM-2 (unknown origin) expressed in Escherichia coli DH5 alpha using nitrocefin as substrate preincubated with enzyme for 5 mins followed by substrate addition in presence of zinc sulfate
# [4] = Zinc chelation-dependent inhibition of NDM-1 (unknown origin) expressed in Escherichia coli BL21 (DE3) using meropenem as substrate preincubated with enzyme for 5 to 10 mins followed by substrate addition
# [5] = Zinc chelation-dependent inhibition of VIM-2 (unknown origin) expressed in Escherichia coli BL21 (DE3) using nitrocefin as substrate preincubated with enzyme for 5 to 10 mins followed by substrate addition
# [6] = Zinc chelation-dependent inhibition of IMP-4 (unknown origin) expressed in Escherichia coli BL21 (DE3) using imipenem as substrate preincubated with enzyme for 5 to 10 mins followed by substrate addition
# Escherichia coli [7] = assay: Antibacterial activity against NDM-1 producing Escherichia coli DH5alpha assessed as decrease in bacterial growth incubated for 16 to 20 hrs by CLSI based microdilution method; assay type: functional; conditions: DH5[alpha], time 16-20 hrs
# Escherichia coli [8] = assay: Antibacterial activity against IMP-4 producing Escherichia coli DH5alpha assessed as decrease in bacterial growth incubated for 16 to 20 hrs by CLSI based microdilution method; assay type: functional; conditions: DH5[alpha], time 16-20 hrs
# Escherichia coli [9] = assay: Antibacterial activity against VIM-1 producing Escherichia coli DH5alpha assessed as decrease in bacterial growth incubated for 16 to 20 hrs by CLSI based microdilution method; assay type: functional; conditions: DH5[alpha], time 16-20 hrs
# Escherichia coli [10] = assay: Synergistic antibacterial activity against IMP-4 producing Escherichia coli DH5alpha assessed as fractional inhibitory concentration index incubated for 16 to 20 hrs in presence of meropenem by checkerboard assay; assay type: functional, DH5[alpha]; conditions: time 16-20 hrs
# Escherichia coli [11] = assay: Synergistic antibacterial activity against NDM-1 producing Escherichia coli DH5alpha assessed as fractional inhibitory concentration index incubated for 16 to 20 hrs in presence of meropenem by checkerboard assay; assay type: functional, DH5[alpha]; conditions: time 16-20 hrs
# Escherichia coli [12] = assay: Synergistic antibacterial activity against VIM-1 producing Escherichia coli DH5alpha assessed as fractional inhibitory concentration index incubated for 16 to 20 hrs in presence of meropenem by checkerboard assay; assay type: functional, DH5[alpha]; conditions: time 16-20 hrs
# Escherichia coli [13] = assay: Antibiotic adjuvant activity against IMP-4 producing Escherichia coli DH5alpha assessed as potentiation of meropenem-induced antibacterial activity incubated for 16 to 20 hrs by agar disc diffusion assay; assay type: functional, organism-based; conditions: DH5[alpha], time 16-20 hrs
# Escherichia coli [14] = assay: Antibiotic adjuvant activity against NDM-1 producing Escherichia coli DH5alpha assessed as potentiation of meropenem-induced antibacterial activity incubated for 16 to 20 hrs by agar disc diffusion assay; assay type: functional, organism-based; conditions: DH5[alpha], time 16-20 hrs
# Escherichia coli [15] = assay: Antibiotic adjuvant activity against VIM-1 producing Escherichia coli DH5alpha assessed as potentiation of meropenem-induced antibacterial activity incubated for 16 to 20 hrs by agar disc diffusion assay; assay type: functional, organism-based; conditions: DH5[alpha], time 16-20 hrs
Structure (SMILES),Activity [1],Activity [2],Activity [3],IC50 [4],IC50 [5],IC50 [6],MIC (Escherichia coli [7]),MIC (Escherichia coli [8]),MIC (Escherichia coli [9]),fractional inhibitory concentration index (FICI) (Escherichia coli [10]),fractional inhibitory concentration index (FICI) (Escherichia coli [11]),fractional inhibitory concentration index (FICI) (Escherichia coli [12]),Activity (Escherichia coli [13]),Activity (Escherichia coli [14]),Activity (Escherichia coli [15])
O=C(O)CN(CCN(CC(=O)O)CC(=O)O)CC(=O)O [EDETIC ACID],inactive,inactive,inactive,1750 nM,> 200000 nM,12500 nM,,,,,,,,,
O=C(O)CN(Cc1cccc(C(=O)O)n1)Cc1cccc(C(=O)O)n1,,,,1670 nM,1530 nM,3880 nM,128 µg/mL,128 µg/mL,128 µg/mL,0.14,0.07,0.07,Active,Active,Active
O=C(O)c1cccc(CN(CCP(=O)(O)O)Cc2cccc(C(=O)O)n2)n1,,,,1650 nM,2030 nM,4840 nM,128 µg/mL,128 µg/mL,128 µg/mL,0.14,0.07,0.07,Active,Active,Active
O=C(O)c1cccc(CNCc2cccc(C(=O)O)n2)n1,,,,1540 nM,1050 nM,1040 nM,128 µg/mL,128 µg/mL,128 µg/mL,0.14,0.07,0.07,Active,Active,Active

# The next lines start with results.
Activity [1],Activity [2],Activity [3],IC50 [4],IC50 [5],IC50 [6],MIC (Escherichia coli [7]),MIC (Escherichia coli [8]),MIC (Escherichia coli [9]),Structure (SMILES),fractional inhibitory concentration index (FICI) (Escherichia coli [10]),fractional inhibitory concentration index (FICI) (Escherichia coli [11]),fractional inhibitory concentration index (FICI) (Escherichia coli [12]),Activity (Escherichia coli [13]),Activity (Escherichia coli [14]),Activity (Escherichia coli [15])
Active,Active,Active,,,,,,,C[C@H](CS)C(=O)N1CCC[C@H]1C(=O)O [CAPTOPRIL],,,,,,
,,,4000 nM,> 200000 nM,9600 nM,,,,N[C@@H](CN[C@@H](CN[C@@H](CC(=O)O)C(=O)O)C(=O)O)C(=O)O,,,,,,
